System: arachidonic acid induced mouse ear inflammation
Experiment: arachidonic acid induced mouse ear inflammation test (MPO as index of neutrophil accumulation)
Type: in vivo, mice
Conditions: for maximum inhibitory effect: group5; for effect on arachidonic acid induced ear inflammation in mice (in words): single compounds, oral administration
Description: Female albino mice (Han:NMRI) obtained from Interfauna and weighing about 20-25 g were used. The animals were provided with standardised pellet diet (Altromin 8013) and had tap water freely available. The animals were accommodated in a climatized room with a 12 hours light/dark cycle and kept in groups.
The compound of formula IA and meloxicam were administered orally (0.2 ml/10 g bw) 30 min. before arachidonic acid challenge. Meloxicam was given twice: one dose 16 hours and the second dose 30 minutes before challenge. For every day there was a concurrent control. Then number of animals per group was 7. The study compounds were suspended in 1% methylcellulose (Tylose MH 300, Fluka, CH-9470 Buchs). The experiment was run in five groups. Every group contained one control, two doses of meloxicam, two doses of (IA), and one dose of the combination of the two compounds.
Mice were lightly anesthetized by ether and 1 mg arachidonic acid (10 μl) was applied to each side of the left ear. […] The animals were sacrificed by ether 6 hours later, and a biopsy (diameter 8 mm) was punched out from both ears to assess an increase of neutrophils in the left ear compared with the right ear. Tissue samples were homogenized in 1 ml 0.5% HTAB (Hexadecyl-trimethyl-ammonium-bromide; Sigma H-5882; solved in 0.05 M phosphate buffer, pH 6.0) using a tissue homogenizer (IKA-Ultraturrax T5; Janke & Kunkel, Staufen/Breisgau) at 30000 RPM for 15 seconds. After centrifugation (16000 G, 5 min) the supernatants were frozen until processing for myeloperoxidase (MPO). Determination in the supernatants for MPO, a neutrophil marker enzyme, served as a quantitative index for the neutrophil accumulation.
MPO was determined spectrophotometrically at 450 nm using a micro plate version of the method of Bradley (1982) and a micro plate reader (Vmax; Molecular Devices, Palo Alto) suitable for kinetic measurements and expressed as mean optical density per minute.
For each individual the response myeloperoxidase activity (MPO) in optical density per minute (oD/min) was measured.
For the comparisons the nonparametric statistical methods Kruskal-Wallis-One-Way-ANOVA and the Wilcoxon-Two-Sample-Test (2 sided) have been used. For the first and last comparisons also Bonferroni-Holm adjusted p-values have been calculated.

## CCOC(=O)N=C(N)c1ccc(OCc2cccc(COc3ccc(C(C)(C)c4ccc(O)cc4)cc3)c2)cc1
supra-maximum doses 0.8 and 1.6 mg/kg p.o.
  maximum inhibitory effect: 66%
  effect on arachidonic acid induced ear inflammation in mice (in words): inhibited arachidonic acid induced ear inflammation in mice

## Cc1cnc(NC(=O)C2=C(O)c3ccccc3S(=O)(=O)N2C)s1 [Meloxicam, meloxicam]
supra-maximum doses 16 and 32 mg/kg p.o.
  maximum inhibitory effect: 37%
  effect on arachidonic acid induced ear inflammation in mice (in words): inhibited arachidonic acid induced ear inflammation in mice

Source: patent US20040116516A1 (Boehringer Ingelheim Pharma GmbH & Co. KG, priority 2002, published 2004)
